Assay results from PMC10261210 (Cancer Chemotherapy and Pharmacology, 2023).
“Also recorded” adds a separate entry of the source. Where two headings read alike, the source gives them in different places.

How the values were obtained:
[1] = system: relapsed or refractory advanced solid tumors, melanoma; design: method as in ref 25 = [25]; 25. Medina T Barry E Govinda Raju S Blackman S Gonzalez R Prolonged complete response to the pan-RAF inhibitor DAY101 in a patient with an NRAS -mutated acral lentiginous melanoma Pigment Cell Melanom; conditions: one patient, NRAS-mutated melanoma, cited from earlier work
[2] = plasma pharmacokinetics (LC–MS/MS, noncompartmental analysis); format: in vivo, human; conditions: for Tmax / AUC / Cmax / half-life: human, plasma; for Cmax: read-out: Cmax, geometric mean (%CV); for half-life: read-out: t1/2z, mean (range) (converted)
Protocol: In addition, for patients on Q2D schedules, predose or trough samples were collected on days 9 and 15 (Q2D dosing) or days 8 and 15 (QW dosing) to evaluate time to steady state. […] Plasma concentration–time analysis was performed using noncompartmental analysis. The plasma PK parameters were estimated using a validated version of Phoenix WinNonlin software (Version 6.3 or above, Pharsight Corporation, Raleigh, NC). Terminal half-life was calculated based on the equation: t1/2 = ln2/kel (kel = elimination rate constant determined by linear regression analysis of selected time points in the apparent terminal phase of the log plasma concentration versus time curve).

[3] = system: recurrent/progressive low-grade gliomas harboring MAPK pathway alterations; conditions: cited from earlier work
[4] = design: method as in PMID 28082416; conditions: healthy brain and intracranial tumors (pediatric low-grade astrocytoma cells, KIAA1549-BRAF fusion); cited from earlier work
[5] = system: wild-type BRAF; design: method as in doi:10.1016/S1359-6349(10)71810-3; conditions: preclinical studies; cited from earlier work
[6] = system: BRAF-mutant, BRAF deletion mutation and NRAS-mutant xenograft tumor models; design: method as in doi:10.1016/S1359-6349(10)71810-3; conditions: cited from earlier work
[7] = system: BRAF; design: method as in PMID 28082416; conditions: cited from earlier work
[8] = system: pERK; assay: pERK expression in paired tumor biopsies (H-score, image analysis); format: in vivo, human; conditions: for median percentage decrease in pERK staining, day 21 vs baseline: Q2D expansion; for median percentage decrease in pERK expression, day 21 vs baseline: QW melanoma expansion cohort
Protocol: Based on tissue availability, pharmacodynamic assays included assessment of pERK expression levels in paired biopsy samples (baseline and day 21) from patients in the melanoma dose expansion cohorts. The level of staining was assessed both by a pathologist (semi-quantitative measurements according to H-score assessment) and by quantitated image analysis (Aperio, Leica Biosystems Nussloch, Germany).

[9] = system: patients with relapsed or refractory advanced solid tumors; assay: phase 1 safety: adverse events (CTCAE v4.03), safety population; format: in vivo, human; conditions: for Fatal serious adverse event, MedDRA preferred term: patient
Protocol: Treatment was to be continued until disease progression, unacceptable toxicity, or the patient discontinued for any other reason, for a maximum duration of 12 months. Treatment could be continued beyond 12 months if it was determined that a patient would derive benefit from such continued therapy.
Adverse events were coded using the Medical Dictionary for Regulatory Activities (MedDRA) Version 19.0 and were graded according to the National Cancer Institute (NCI) Common Terminology Criteria (CTC) for adverse events (CTCAE) (Version 4.03). The assessment period for treatment emergent adverse events (TEAEs) was from the first dose of study treatment to 30 days after the last dose of study medication, or until the start of subsequent antineoplastic therapy, whichever occurred first. Following baseline evaluation, response was assessed by investigators every two cycles by computed tomography or magnetic resonance imaging according to Response Evaluation Criteria in Solid Tumors (version 1.1).
The safety population was defined as all patients who received any amount of tovorafenib. The DLT-evaluable population was defined as all patients in the dose escalation phase of the study who either experienced DLT during cycle 1 or who completed at least 75% of the planned doses and had sufficient follow-up data to allow the investigators and sponsor to determine whether DLT had occurred. […] The PK-evaluable population included all patients who had sufficient dosing data and concentration–time data to permit calculation of PK parameters.

[10] = po, 400 mg, 400 mg QW oral, cycle 1 day 22, plasma, n 3
[11] = po, 600 mg, 600 mg QW oral, cycle 1 day 22, plasma, n 20
[12] = po, 800 mg, 800 mg QW oral, cycle 1 day 22, plasma, n 3
[13] = dose-escalation part, QW monotherapy, 8 patients with tumor RAF gene fusions

In the case of `C[C@@H](NC(=O)c1ncnc(N)c1Cl)c1ncc(C(=O)Nc2cc(C(F)(F)F)c(Cl)cn2)s1` [tovorafenib], the “treatment time until complete response was reported” value ([1]; single patient IND after the study) is given as 7 months, the “duration for which complete response has been sustained” value ([1]; single patient IND, continued treatment) is given as 8 years and the “dose dependence of steady-state AUC48” value ([2]; 20 mg to 280 mg Q2D) is given as “approximately dose-proportional”. The “dose dependence of steady-state exposure (AUC168)” value ([2]; 400 mg to 800 mg QW) was “approximately dose-proportional”, the “power model coefficient, dose versus steady-state AUC168” value ([2]; 400 mg to 800 mg QW, cycle 1 day 22, 95% CI 0.55–2.04) was 1.30 and the “geometric mean Rauc” value ([2]; Q2D dosing regimen at 200 mg) was ~ 2.55. It also gave a Tmax ([2]; oral, post-dose, Q2D and QW, read-out: overall median Tmax) of 2 to 4 h, an AUC ([2]; po, 20 mg, 20 mg Q2D oral, cycle 1 day 21, plasma, n 3, read-out: AUC48, geometric mean (%CV)) of 10.4 µg·h/mL and a Cmax ([2]; po, 20 mg, 20 mg Q2D oral, cycle 1 day 21, plasma, n 3) of 302 ng/mL. The Tmax ([2]; po, 20 mg, 20 mg Q2D oral, cycle 1 day 21, plasma, n 3, read-out: tmax, median (min, max)) was 2 h, the AUC ([2]; po, 40 mg, 40 mg Q2D oral, cycle 1 day 21, plasma, n 2, read-out: AUC48, geometric mean (%CV)) was 20.9 µg·h/mL and the Cmax ([2]; po, 40 mg, 40 mg Q2D oral, cycle 1 day 21, plasma, n 2) was 760 ng/mL. The Tmax ([2]; po, 40 mg, 40 mg Q2D oral, cycle 1 day 21, plasma, n 2, read-out: tmax, median (min, max)) was 3 h, the AUC ([2]; po, 80 mg, 80 mg Q2D oral, cycle 1 day 21, plasma, n 3, read-out: AUC48, geometric mean (%CV)) was 42.7 µg·h/mL and the Cmax ([2]; po, 80 mg, 80 mg Q2D oral, cycle 1 day 21, plasma, n 3) was 2040 ng/mL. It also gave a Tmax ([2]; po, 80 mg, 80 mg Q2D oral, cycle 1 day 21, plasma, n 3, read-out: tmax, median (min, max)) of 4 h, an AUC ([2]; po, 135 mg, 135 mg Q2D oral, cycle 1 day 21, plasma, n 3, read-out: AUC48, geometric mean (%CV)) of 96.8 µg·h/mL and a Cmax ([2]; po, 135 mg, 135 mg Q2D oral, cycle 1 day 21, plasma, n 3) of 3320 ng/mL. For the same compound, the Tmax ([2]; po, 135 mg, 135 mg Q2D oral, cycle 1 day 21, plasma, n 3, read-out: tmax, median (min, max)) was 2 h, the AUC ([2]; po, 200 mg, 200 mg (n=7) Q2D oral, cycle 1 day 21, plasma, n 6, read-out: AUC48, geometric mean (%CV)) was 118 µg·h/mL and the Cmax ([2]; po, 200 mg, 200 mg (n=7) Q2D oral, cycle 1 day 21, plasma, n 6) was 3810 ng/mL. The Tmax ([2]; po, 200 mg, 200 mg (n=7) Q2D oral, cycle 1 day 21, plasma, n 6, read-out: tmax, median (min, max)) was 3 h, the AUC ([2]; po, 200 mg, 200 mg (n=23; PK expansion cohort and 28-day cycle cohort) Q2D oral, cycle 1 day 21, plasma, n 14, read-out: AUC48, geometric mean (%CV)) was 127 µg·h/mL and the Cmax ([2]; po, 200 mg, 200 mg (n=23; PK expansion cohort and 28-day cycle cohort) Q2D oral, cycle 1 day 21, plasma, n 14) was 3680 ng/mL. It also gave a Tmax ([2]; po, 200 mg, 200 mg (n=23; PK expansion cohort and 28-day cycle cohort) Q2D oral, cycle 1 day 21, plasma, n 14, read-out: tmax, median (min, max)) of 2 h, an AUC ([2]; po, 280 mg, 280 mg Q2D oral, cycle 1 day 21, plasma, n 4, read-out: AUC48, geometric mean (%CV)) of 155 µg·h/mL and a Cmax ([2]; po, 280 mg, 280 mg Q2D oral, cycle 1 day 21, plasma, n 4) of 4060 ng/mL. The Tmax ([2]; po, 280 mg, 280 mg Q2D oral, cycle 1 day 21, plasma, n 4, read-out: tmax, median (min, max)) was 3 h, the AUC ([2]; po, 400 mg, 400 mg QW oral, cycle 1 day 22, plasma, n 3, read-out: AUC168, geometric mean (%CV)) was 193 µg·h/mL and the Cmax [2, 10] was 3140 ng/mL. For the same compound, the Tmax ([2]; po, 400 mg, 400 mg QW oral, cycle 1 day 22, plasma, n 3, read-out: Tmax, median (min, max)) was 3 h, the half-life [2, 10] was 52 h and the AUC ([2]; po, 600 mg, 600 mg QW oral, cycle 1 day 22, plasma, n 20, read-out: AUC168, geometric mean (%CV)) was 330 µg·h/mL. The Cmax [2, 11] was 5650 ng/mL, the Tmax ([2]; po, 600 mg, 600 mg QW oral, cycle 1 day 22, plasma, n 20, read-out: Tmax, median (min, max)) was 3 h and the half-life [2, 11] was about 70 h. It also gave an AUC ([2]; po, 800 mg, 800 mg QW oral, cycle 1 day 22, plasma, n 3, read-out: AUC168, geometric mean (%CV)) of 473 µg·h/mL, a Cmax [2, 12] of 6460 ng/mL and a Tmax ([2]; po, 800 mg, 800 mg QW oral, cycle 1 day 22, plasma, n 3, read-out: Tmax, median (min, max)) of 4 h. The half-life [2, 12] was 68.1 h, the “accumulation in systemic circulation (day 22 AUC168 over day 1 AUC168)” value ([2]; repeated QW dosing, 400–800 mg) was “minimal accumulation; also recorded: Minimal to no apparent accumulation” and the complete responses [3, 13] was 2 patients. For the same compound, the partial responses [3, 13] was 3 patients, the prolonged stable disease [3, 13] was “two” and the “patients with clinically meaningful activity” value ([3]; phase 1b part, 24 of 35 patients with MAPK pathway-altered cancers) was 69%. The complete responses ([3]; phase 1b part, 35 patients) was 2, the partial responses ([3]; phase 1b part, 35 patients) was 7 and the stable diseases ([3]; phase 1b part, 35 patients) was 15. The “blood–brain barrier penetration” value [4] was “good blood–brain barrier penetration”, the IC50 [5] was 10.1 nM and the p-ERK suppression [6] was “strong and sustained p-ERK suppression”. The “affinity for monomeric versus dimeric forms of BRAF” value [7] was “equal affinity”, the “median percentage decrease in pERK staining, day 21 vs baseline” value ([8]; H-score by a pathologist, BRAF mutation-positive previously treated cohort) was at least 70% and the “median percentage decrease in pERK staining, day 21 vs baseline” value ([8]; H-score by a pathologist, BRAF mutation-positive treatment-naïve cohort) was at least 70%. For the same compound, the “median percentage decrease in pERK staining, day 21 vs baseline” value ([8]; H-score by a pathologist, NRAS mutation-positive treatment-naïve cohort) was at least 70%, the “median percentage decrease in pERK expression, day 21 vs baseline” value ([8]; H-score by a pathologist) was 12% and the “median percentage decrease in pERK staining, day 21 vs baseline” value ([8]; quantitated image analysis, BRAF mutation-positive previously treated cohort) was at least 70%. The “median percentage decrease in pERK staining, day 21 vs baseline” value ([8]; quantitated image analysis, NRAS mutation-positive treatment-naïve cohort) was at least 70%, the “median percentage decrease in pERK expression, day 21 vs baseline” value ([8]; quantitated image analysis) was 8% and the “Fatal serious adverse event, MedDRA preferred term” value (“Fatal serious adverse event” for short) ([9]; dose escalation, 20 mg Q2D, study day of death 23, Not related) was “Respiratory failure”. For the same compound, the “Fatal serious adverse event” value ([9]; dose escalation, 80 mg Q2D, study day of death 44, Not related) was “Colon cancer”, the “Fatal serious adverse event” value ([9]; dose escalation, 280 mg Q2D, study day of death 28, Related) was “Respiratory failure” and the “Fatal serious adverse event” value ([9]; dose escalation, 600 mg QW, study day of death 9, Not related) was “Colon cancer metastatic”. For the same compound, the “Fatal serious adverse event” value ([9]; dose escalation, 600 mg QW, study day of death 28, Not related) was “Pancreatic carcinoma”, the “Fatal serious adverse event” value ([9]; dose escalation, 800 mg QW, study day of death 31, Not related) was “Cardio-respiratory arrest” and the on-study deaths ([9]; dose expansion phase (7%)) was 7 patients. For the same compound, the “Fatal serious adverse event” value ([9]; dose expansion, Q2D, study day of death 16, Not related) was “Small intestinal obstruction”, the “Fatal serious adverse event” value ([9]; dose expansion, Q2D, study day of death 26, Not related) was “Sepsis” and the “Fatal serious adverse event” value ([9]; dose expansion, Q2D, study day of death 43, Not related) was “Pneumonia”. For the same compound, the “Fatal serious adverse event” value ([9]; dose expansion, Q2D, study day of death 61, Not related) was “Metastatic malignant melanoma”, the “Fatal serious adverse event” value ([9]; dose expansion, Q2D, study day of death 67, Not related) was “Malignant melanoma” and the “Fatal serious adverse event” value ([9]; dose expansion, Q2D, study day of death 81, Not related) was “Metastatic malignant melanoma”. The “drug-related TEAE fatigue” value ([9]; human, in vivo) was 42%, the “drug-related TEAE maculo-papular rash” value ([9]; human, in vivo) was 36% and the “drug-related grade 3 or higher anemia” value ([9]; human, in vivo) was 8%. The “drug-related grade 3 or higher hyperbilirubinemia” value ([9]; human, in vivo) was 10%, the “drug-related grade 3 or higher maculo-papular rash” value ([9]; human, in vivo) was 9% and the “generalized rash leading to dose reduction” value ([9]; human, in vivo) was 3%. The “grade 3 or higher anemia” value ([9]; human, in vivo) was 14%, the “grade 3 or higher maculo-papular rash” value ([9]; human, in vivo) was 8% and the “maculo-papular rash leading to dose reduction” value ([9]; human, in vivo) was 5%. The “maculo-papular rash resulting in permanent discontinuation” value ([9]; human, in vivo) was 3%, the “sepsis resulting in permanent discontinuation” value ([9]; human, in vivo) was 3% and the “squamous cell carcinoma of skin reported as TEAE” value ([9]; human, in vivo) was under 1%. For the same compound, the “on-study deaths deemed treatment related” value ([9]; respiratory failure, 280 mg Q2D dose escalation cohort) was “one” and the on-study deaths ([9]; whole study, 149 patients) was 13.
